How the values were obtained:
[1] = Body weight during fatigue procedure and test period; type: in vivo, Rats, Sprague-Dawley; conditions: test period
Experimental: FIG. 26 Body weight (in g; mean, SEM) before the beginning and during the fatigue procedure (F-D1-7) and during the test period (T-D1-D3+24 h).
Animals were weighed every day.
After the end of the Fatigue procedure, animals were divided into 10 groups which received before tests (total: 3 administrations) a per-os (p.o., oral gavage) administration of: • Sham (no fatigue) group (N=12): Vehicle. • Control group (N=11): Vehicle. • Modafinil 32 (N=10): modafinil (32 mg/kg). • Modafinil 64 (N=10): modafinil (64 mg/kg). • Modafinil 128 (N=5): modafinil (128 mg/kg). • NLS-4 16 (N=5): NLS-4 (16 mg/kg). • NLS-4 32 (N=10): NLS-4 (32 mg/kg). • NLS-4 64 (N=10): NLS-4 (64 mg/kg). • NLS-4 128 (N=10): NLS-4 (128 mg/kg). • NLS-4 256 (N=5): NLS-4 (256 mg/kg).

[2] = target: T1, Relaxin-3 (RXFP3) (h) (agonist radioligand) (Homo sapiens, UniProt Q9NSD7); assay: RXFP3 assay (Eurofins/leadHunter GPCR Biosensor cAMP Hunter); type: cell-based
T1 sequence (Q9NSD7 1-469): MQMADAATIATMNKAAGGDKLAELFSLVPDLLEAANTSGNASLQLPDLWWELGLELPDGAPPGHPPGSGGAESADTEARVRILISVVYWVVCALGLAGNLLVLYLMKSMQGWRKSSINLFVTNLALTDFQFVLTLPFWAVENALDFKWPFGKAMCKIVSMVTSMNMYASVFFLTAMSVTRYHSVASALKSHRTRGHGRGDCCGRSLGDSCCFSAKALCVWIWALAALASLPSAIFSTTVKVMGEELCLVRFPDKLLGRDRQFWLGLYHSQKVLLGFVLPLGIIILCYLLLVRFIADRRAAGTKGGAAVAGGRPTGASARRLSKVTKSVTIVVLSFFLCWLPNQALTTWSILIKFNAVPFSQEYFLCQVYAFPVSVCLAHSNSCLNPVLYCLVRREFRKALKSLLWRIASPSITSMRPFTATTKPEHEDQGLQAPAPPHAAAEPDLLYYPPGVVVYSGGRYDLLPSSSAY
Experimental: Lauflumide is found to weakly bind with RXFP3 receptors (Study US073-0006869-Q Eurofins/leadHunter 8/1/19; unpublished data) (Table 1).
In these assays' compounds were tested in agonist and antagonist mode with the GPCR Biosensor Assays and match to this design:
1. cAMP Hunter cell lines were expanded from freezer stocks according to standard procedures.
2. Cells were seeded in a total volume of 20 μL into white walled, 384-well microplates and incubated at 37° C. for the appropriate time prior to testing.
3. cAMP modulation was determined using the DiscoverX HitHunter cAMP XS+ assay.
1. For agonist determination, cells were incubated with sample in the presence of EC80 forskolin to induce response.
2. Media was aspirated from cells and replaced with 15 μL 2:1 HBSS/10 mM Hepes: cAMP XS+ Ab reagent.
3. […]
2. Microplates were read following signal generation with a PerkinElmer Envision™ instrument for chemiluminescent signal detection.
1. Compound activity was analyzed using CBIS data analysis suite (ChemInnovation, CA).
5. For Gi agonist mode assays, percentage activity is calculated using the following formula: […]
8. For Gi antagonist or negative allosteric mode assays, percentage inhibition is calculated using the following formula: % Inhibition=100%×(mean RLU of test sample−mean RLU of EC80 control)/(mean RLU of forskolin positive control−mean RLU of […]

Question: For NC(=O)C[S@@+]([O-])C(c1ccc(F)cc1)c1ccc(F)cc1 [Lauflumide, 2-[(R)-((bis(4-fluorophenyl)methane)sulfinyl)]acetamide], which “Weight loss induced by the fatigue procedure” value ([1]; 16 mg/kg p.o.) is on record?
Answer: Its value is “not modified”.

Question: What about the “Weight loss induced by the fatigue procedure” value ([1]; 32-256 mg/kg p.o.) of the same molecule?
Answer: Its value is “aggravated”.

Question: What about the “% Inhibition at 10^−5M” value [2] of the same molecule?
Answer: The value was 23.9%.
